The text below walks through data of US20210253628A1, “COMPOUNDS, COMPOSITIONS, AND METHODS FOR TREATMENT OF ANDROGEN-MEDIATED DISEASE” (The Regents of the University of California, priority 2018, published 2021).

Structures are written as SMILES. “Also recorded” adds a separate entry of the source.

For series [1], the system named is CWR22Rv1. The experiment in a line: CWR22Rv1 cell number with Nic-S with or without enzalutamide or abiraterone acetate. Type of series: cell-based.
Series [2] has as its system CWR22-rv1 tumors. Description: CWR22-rv1 tumors in mice, combination treatment with Nic-S and enzalutamide.
The subject of series [3] is Wnt5A. Description: Wnt5A expression by Western blot in C4-2B MDVR cells. In kind it is cell-based. Particulars: C4-2B MDVR cell lysates, different concentrations.
For series [4] the following is noted: cited from earlier work.
For series [5] the following is noted: in vivo; cited from earlier work.
Series [6] relates to MCF-7, MDA-MB-468 and MDA-MB-231 cells. The experiment in a line: Breast cancer cell growth (cell numbers counted). In kind it is cell-based. The note with it: different doses, 48 hrs.
Series [7] concerns C4-2B, LNCaP, DU145, PC3, CWR22rv1 and VCaP cells. The experiment in a line: Prostate cancer cell growth assay (cell numbers counted).
In series [8] the test system is AR. Description: PSA-luciferase reporter assay (AR transcriptional activity) in VCaP cells. Type of series: cell-based.
Description: (§1) The sensitivity of prostate cancer cells to STS inhibitors was tested using cell growth assays and clonogenic assays. Quantitative reverse transcription-PCR, and Western blotting were performed to detect expression levels of STS and AR. […] Steroid profile including DHEA and androgens was analyzed by Liquid Chromatography-Mass Spectrometry (LC-MS). STS activity was determined by 4-Methylumbelliferyl sulfate assay through a fluorescence microtiter plate reader. PSA secretion was determined by ELISA and PSA-luciferase activity was measured by reporter assay.
(§2) The AR expression was also determined by western blot.
Series [9] deals with T1, STS (Homo sapiens, UniProt P08842).
T1 construct: A VCaP tumor model that expresses endogenous STS was employed; endogenous in cells; host or cells: VCaP prostate cancer cells
T1 sequence (P08842 22-583): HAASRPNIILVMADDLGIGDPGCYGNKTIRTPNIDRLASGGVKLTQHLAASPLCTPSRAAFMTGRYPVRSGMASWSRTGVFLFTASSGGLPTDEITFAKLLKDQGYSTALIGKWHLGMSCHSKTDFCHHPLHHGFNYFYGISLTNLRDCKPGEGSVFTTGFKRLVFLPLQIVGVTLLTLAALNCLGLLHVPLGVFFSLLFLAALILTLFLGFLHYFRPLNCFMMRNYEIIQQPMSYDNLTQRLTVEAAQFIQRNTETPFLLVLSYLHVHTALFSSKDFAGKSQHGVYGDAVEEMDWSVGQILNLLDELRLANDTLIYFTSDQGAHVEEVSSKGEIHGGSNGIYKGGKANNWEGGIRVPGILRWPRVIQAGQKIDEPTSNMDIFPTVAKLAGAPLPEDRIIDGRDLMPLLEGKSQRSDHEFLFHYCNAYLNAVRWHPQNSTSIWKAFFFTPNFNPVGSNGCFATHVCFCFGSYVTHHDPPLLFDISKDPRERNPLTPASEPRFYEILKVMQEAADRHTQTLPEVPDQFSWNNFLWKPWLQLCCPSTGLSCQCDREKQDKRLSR
Description: STS enzymatic activity in VCaP cells (4-Methylumbelliferyl sulfate microtiter plate cellular assay, fluorescence readout). Type of series: cell-based. The method, then: VCaP cells were treated with 5 μM of different STSi, and STS activity was measured by microtiter plate cellular assay using fluorescence readout.
To evaluate the ability of STSi in inhibition of STS enzymatic activity, VCaP prostate cancer cells were treated with two synthesized STSi and STS enzymatic activity was measured. The activity assay was carried as described by Wolff, et al. (Anal Biochem, 2003. 318(2): p. 276-284). […] FIG. 3 shown the effects of other STSi on STS enzymatic activity in VCaP cells.

In series [10] the test system is VCaP cells. The experiment in a line: VCaP cell growth with or without enzalutamide. The note with it: 3 days; for VCaP cell growth, single agent: 10 μM or 25 μM Si-1 or Si-2, or 20 μM enzalutamide.
The subject of series [11] is AR. The experiment in a line: AR expression by western blot in VCaP cells. Particulars: 3 days; for AR expression: western blot, 25 μM Si-1 or Si-2 or 20 μM enzalutamide alone.
Description: as §1, §2
Series [12] concerns VCaP tumors. The experiment in a line: Castration relapsed VCaP xenograft tumor model. The note with it: for Ki67 expression in relapsed VCaP tumors, single agent / tumor growth, single agent (combination study): enzalutamide 25 mg/Kg p.o. or Si-1 25 mg/Kg i.p. The method, then:
Tumor volumes were determined twice weekly.
VCaP tumors were allowed to develop in intact SCID mice and the animals were castrated after tumors reached 80-100 mm^3 of size. […] Tumor proliferation and AR expression by IHC was also examined.
The VCaP tumor model was then used to validate the efficacy of combination therapy.

On to `NS(=O)(=O)Oc1ccc(Cl)cc1C(=O)Nc1ccc([N+](=O)[O-])cc1Cl` [Niclosamide sulfamate, niclosamide sulfamate], for which the “enhancement of Enza/AA treatment” value in [1] (0.5 μM Nic-S with 20 μM enzalutamide or 5 μM abiraterone acetate) is given as “synergistically enhances”. Also, the “enhancement of enzalutamide treatment in vitro” value in series [1] (0.5 μM Nic-S with 20 μM enzalutamide, 3 and 5 days) was “synergistically enhance”. The toxicity result in series [2] (body weight of mice bearing CWR22-rv1 tumors) is listed as “without obvious toxicity”. The “enhancement of enzalutamide treatment in vivo” value in series [2] (tumor volume, mice bearing CWR22-rv1 tumors) was “synergistically enhance”. For the same compound, the values for the Wnt5A expression entry in series [3] and in series [3] (listed as Nic-S) were “inhibit” and “suppresses”, respectively.
Consider `O=C(Nc1ccc([N+](=O)[O-])cc1Cl)c1cc(Cl)ccc1O` [Niclosamide, 2′,5-dichloro-4′-nitrosalicylanilide], for which, in [4], the solubility entry is listed as “low”. In addition, the oral bioavailability result in series [5] is “low”.
With `CCN(C(=O)C1=CCC2C3CCc4cc(OS(N)(=O)=O)ccc4C3CCC12C)C(C)C` (stereo not drawn) [Si-1], in series [6], the “breast cancer cell growth (cell numbers)” value is on record as “inhibits cell growth in a dose dependent manner”. In addition, in series [7] (C4-2B and VCaP cells), the “growth of C4-2B and VCaP cells” value was “inhibited”. For the same compound, in series [7] (increasing doses, 48 hrs, C4-2B, LNCaP, DU145, PC3, CWR22rv1 and VCaP cells), the “cell growth (cell numbers)” value is recorded as “inhibited cell growth in a dose dependent manner”. Moreover, the AR transcriptional activity result in series [8] is on record as “significantly suppressed”. In addition, the STS activity entry in [9] is “inhibited”. Also, in [10], the “VCaP cell growth, single agent” value is “reduced”. Moreover, the “VCaP cell numbers, combination with enzalutamide” value in series [10] (Si-1 or Si-2 with 20 μM enzalutamide) was “further reduced”. Also, the “AR expression, combination with enzalutamide” value in series [11] (25 μM Si-1 or Si-2 with 20 μM enzalutamide) is reported as “completely suppressed”. In addition, the AR expression result in series [11] is “significantly suppressed; also recorded: significantly decreased”. Further, in [12] (25 mg/kg/d i.p., 3 weeks), the “AR staining / tumor AR expression in VCaP tumors (IHC)” value was “significantly suppressed”, the “Ki67 staining in VCaP tumors (IHC)” value is on record as “less” and the “tumor suppression compared with control” value is “around 60%”. Moreover, in series [12] (25 mg/kg/d i.p., castrated mice, 3 weeks), the “relapsed VCaP tumor growth / tumor progression” value was “significantly suppressed; also recorded: significantly diminished”. Also, the “decrease of serum PSA” value in series [12] (3 weeks of treatment, control group 300 ng/mL PSA, ELISA) came out at 50%. Moreover, the “Ki67 expression in relapsed VCaP tumors, combination with enzalutamide” value in series [12] (IHC, Si-1 plus enzalutamide) is reported as “further lowered”. The “Ki67 expression in relapsed VCaP tumors, single agent” value in series [12] (IHC) was “significantly decreased”. For the same compound, the “tumor growth, combined with enzalutamide” value in [12] (Si-1 25 mg/Kg i.p. plus enzalutamide 25 mg/Kg p.o., 3 weeks) is on record as “further suppressed”. In [12] (Si-1 25 mg/Kg i.p., 3 weeks), the “tumor weight, single agent (combination study)” value is “significantly suppressed”. The tumor weight entry in series [12] (after 3 weeks treatment, 25 mg/kg/d i.p.) is on record as “significantly decreased”. Moreover, in [12] (compared with control group, 25 mg/kg/d i.p.), the mice body weight result is “not affected”. The “tumor growth, single agent (combination study)” value in series [12] (3 weeks) was “significantly suppressed”.
`CNC(=O)c1ccc(N2C(=S)N(c3ccc(C#N)c(C(F)(F)F)c3)C(=O)C2(C)C)cc1F` [enzalutamide, reference compound]: in [10], the “VCaP cell growth, single agent” value is given as “slightly suppressed”. In addition, the AR expression entry in series [11] is given as “decreased”. Also, the “Ki67 expression in relapsed VCaP tumors, single agent” value in series [12] (IHC) is reported as “did not affect”. Further, the “tumor growth, single agent (combination study)” value in series [12] (3 weeks) was “only slighted delayed”.
